PubChem BioAssay (NCI)
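Values below derive from 48-hour exposures of cells grown in 96-well plates, with endpoints linearly interpolated between the two concentrations bracketing the appropriate inhibition level. At the TGI there is no net growth.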

Key:
Assay in all cases: NCI-60 cell line screen, 48 h
[1] = system: SW-620 colon
[2] = system: SNB-75 CNS
[3] = system: HCT-15 colon
[4] = system: SNB-19 CNS
[5] = system: HL-60(TB) leukemia
[6] = system: HOP-92 NSCLC
[7] = system: M14 melanoma
[8] = system: DMS 114 small cell lung
[9] = system: SK-MEL-2 melanoma
[10] = system: IGROV1 ovarian
[11] = system: OVCAR-8 ovarian
[12] = system: SNB-78 CNS
[13] = system: UACC-257 melanoma
[14] = system: DLD-1 colon
[15] = system: RPMI-8226 leukemia
[16] = system: SK-MEL-28 melanoma
[17] = system: U251 CNS
[18] = system: TK-10 renal
[19] = system: 786-0 renal
[20] = system: SF-539 CNS
[21] = system: COLO 205 colon
[22] = system: RXF 393 renal
[23] = system: LOX IMVI melanoma
[24] = system: NCI-H460 lung
[25] = system: OVCAR-4 ovarian
[26] = system: ACHN renal
[27] = system: OVCAR-5 ovarian
[28] = system: EKVX NSCLC
[29] = system: SK-OV-3 ovarian
[30] = system: KM20L2 colon
[31] = system: A498 renal
[32] = system: CAKI-1 renal
[33] = system: RXF-631 renal
[34] = system: HOP-62 NSCLC
[35] = system: KM12 colon
[36] = system: SK-MEL-5 melanoma
[37] = system: SF-268 CNS
[38] = system: K-562 leukemia
[39] = system: UACC-62 melanoma
[40] = system: HCT-116 colon
[41] = system: M19-MEL melanoma
[42] = system: A549 NSCLC
[43] = system: MOLT-4 leukemia
[44] = system: HCC-2998 colon
[45] = system: OVCAR-3 ovarian
[46] = system: NCI-H23 lung
[47] = system: LXFL 529 NSCLC
[48] = system: MALME-3M melanoma
[49] = system: UO-31 renal
[50] = system: NCI-H522 lung
[51] = system: CCRF-CEM leukemia
[52] = system: XF 498 CNS
[53] = system: SN12C renal
[54] = system: SR leukemia
[55] = system: HOP-18 NSCLC
[56] = system: HT29 colon
[57] = system: NCI-H226 lung
[58] = system: SF-295 CNS
[59] = system: DMS 273 small cell lung

Measured: TGI

NC(=O)C(=O)C1CCC2=C(Sc3ccccc3N2)C1=O (stereo unspecified)
not listed: [51] | [52] | [53] | [54] | [55] | [56] | [57] | [58] | [59]
> 100 µM: all other assays above

CCCCC1(C)C=C/C(=C2/C(=O)O/C(=C\C(=O)O)C2=O)O1 (stereo unspecified)
not listed: [6] | [8] | [14] | [22] | [32] | [37] | [44] | [50]
> 100 µM: all other assays above
